This note sets out measurements from patent US6664241B2, “Water-soluble amide derivatives of polyene macrolides and preparation and uses thereof” (Micrologix Biotech Inc., priority 2000, dated 2003).

Structures are written as SMILES. Read-outs that look alike come from different tables or passages of the source.

The data set can be described thus: Two week range-finding toxicity study in mice. Format: in vivo, CD-1 mice. The conditions noted are these: both sexes, CD-1, mouse, in vivo, iv, intravenous once daily on days 1 to 5 and 8 to 12. On the procedure: A variety of the compounds synthesized as described in Section 5, supra, were tested in various in vivo assays, as described below. The results of the various assays are provided in TABLE 3, presented at the end of this section. In all of the in vivo assays described, the test compounds, in the form of the aspartate salts, were formulated in an aqueous vehicle (5% mannitol in sterile water; OSMITROL, Baxter Healthcare, Deerfield, Ill.), followed by appropriate dilutions. The formulations were prepared fresh before dosing.
AmB and AME were also tested for comparison. For AmB, the commercially available FUNGIZONE (Bristol-Meyers Squibb Co.) was used. Reported values are based upon the weight of the AmB active ingredient, not on the basis of the weight of the FUNGIZONE powder. AME was formulated in OSMITROL as described for the test compounds.
Various polyene macrolide amide derivatives of the invention were evaluated to characterize their potential toxicity when administered subchronically by intravenous injection.
CD-1® mice (Charles River Laboratories, Portage, Mich.) were acclimated to laboratory conditions for at least 5 days before the start of dosing. During the acclimation period, the general condition of the mice was evaluated, and those considered healthy were used. The mice were randomly assigned to treatment groups using a stratified body weight regimen. Each treatment group consisted of 3 male and 3 female mice. The mice were housed in a room with a controlled environment and provided rodent chow and water ad libitum.
On the first day of dosing, the mice were approximately 7 to 9 weeks old and weighed 22 to 30 g. Doses were administered by intravenous injection once daily on study days 1 to 5 and 8 to 12. Dosages were selected based upon data from efficacy and toxicology studies, and ranged from 1.25 to 30 mg/kg/day. Clinical observations were recorded 0.5 hr after dosing on days 1, 3, 5, 8, 10, 12 and 15, and on any day a change was observed. Body weights were recorded prior to dosing and on study days 8 and 12, and on study day 15 at the completion of the in-life phase of the study.
Animals that were found in a moribund/deteriorating clinical state were euthanized (animal designated killed in extremis) by inhalation of CO2. The day of death for any animal found dead or killed in extremis was recorded. Any animal that died prematurely was removed from the study without further processing.
One day after completion of dosing (study day 16), all surviving mice were euthanized by inhalation of CO2. Their kidneys were preserved for histopathologic examination. The maximum no-observed-adverse-effect level (NOAEL) was determined on the basis of clinical and histopathologic findings. The values for AmB and AME are provided for comparison.

Turning to `C[C@@H]1[C@H](O)[C@@H](C)/C=C/C=C/C=C/C=C/C=C/C=C/C=C/[C@H](O[C@@H]2O[C@H](C)[C@@H](O)[C@H](N)[C@@H]2O)C[C@@H]2O[C@](O)(C[C@@H](O)C[C@@H](O)[C@H](O)CC[C@@H](O)C[C@@H](O)CC(=O)O[C@H]1C)C[C@H](O)[C@H]2C(=O)O` [AMB, amphotericin B, reference compound], the NOAEL at 2 week (clinical findings, read-out: NOAEL 2 week mice clinical) is 0.5 mg/kg and the NOAEL at 2 week (histopathologic (kidney) findings, read-out: NOAEL 2 week mice histological) came to 0.85 mg/kg.

The NOAEL is the highest tested level that showed no adverse finding.
